# Data reported in patent publication US8445531B2, “Rodenticidal compounds, composition including same and use thereof for controlling harmful rodents” (priority 2010, dated 2013).
# Experiments:
# [1] = system: rats; test: Mortality follow-up in rats after repeated administration; type: in vivo, rat
# Source text: The rodenticidal effectiveness and the remanence of the compounds according to the invention have been tested in comparison with the rodenticidal product of reference bromadiolone, with bromadiolone being the least remanent of all of the second-generation anticoagulants currently used in combating rodents.
# For this test, the compound of formula (II) that is obtained by implementing the process disclosed above is used.
# (§1) 3 lots of 5 rats were used for the compound of formula (II), and 2 lots of 4 rats were used for bromadiolone.
# (§2) 3 doses of 10 mg/kg of rat were administered intraperitoneally in succession at T0, T24h and T48h.
# 1 lot of rats was used to follow the mortality rate brought about by the 3 administrations of the compound of formula (II) according to the invention.
# (§3) Doses of 2 mg/kg/day were administered for 4 days.
# 1 lot of rats was used to determine the mortality rate brought about at T120h.
# [2] = Liver residue follow-up (remanence) in rats; type: in vivo; conditions: rat liver
# Method: as §1, §2
# 1 lot of rats was used to carry out a metering of residue of the compound of formula (II) in the liver at T72h, T96h and T120h.
# as §3
# A metering of bromadiolone residue in the liver at T120h was carried out.
# [3] = system: rats; test: Coagulation time follow-up in rats; type: in vivo, rat
# Method: as §1, §2
# 1 lot of rats was used to follow the coagulation time between 24 hours and 120 hours after the first injection. Actually, the coagulation time is the first parameter that varies and tends toward infinity under the action of an anticoagulant.
# as §3
# 1 lot of rats was used to follow the coagulation time between 24 hours and 120 hours after the first injection.
# [4] = 3 doses of 10 mg/kg intraperitoneally at T0, T24h, T48h, T24 h
# [5] = 3 doses of 10 mg/kg intraperitoneally at T0, T24h, T48h, T48 h
# [6] = 3 doses of 10 mg/kg intraperitoneally at T0, T24h, T48h, T72 h
compound,measurement,setting,value
"O=c1oc2ccccc2c(O)c1C(CC(O)c1ccc(-c2ccc(Br)cc2)cc1)c1ccccc1 (stereo not drawn) [Bromadiolone, bromadiolone]",Total Mortality,"[1]; 2 mg/kg/day for 4 days, 2 mg/kg/day",100%
same,Mortality Follow-Up,"[1]; 2 mg/kg/day for 4 days, T96 h",2 Deaths
same,Mortality Follow-Up,"[1]; 2 mg/kg/day for 4 days, T120 h",2 Deaths
same,Total Mortality,"[1]; 2 mg/kg/day for 4 days, listed as reference rodenticidal product, 2 mg/kg/day",100%
same,Liver Residue Follow-Up,"[2]; 2 mg/kg/day for 4 days, T120 h",4.2 µg/g
same,liver residue of bromadiolone relative to compound of formula (II),[2]; 120 hours after the first injection,11 times
same,Coagulation Time Follow-Up,"[3]; 2 mg/kg/day for 4 days, T0",Infinite
same,Coagulation Time Follow-Up,"[3]; 2 mg/kg/day for 4 days, T24 h",Infinite
same,Coagulation Time Follow-Up,"[3]; 2 mg/kg/day for 4 days, T48 h",Infinite
same,Coagulation Time Follow-Up,"[3]; 2 mg/kg/day for 4 days, T72 h",Infinite
same,Coagulation Time Follow-Up,"[3]; 2 mg/kg/day for 4 days, T96 h",Infinite
same,Coagulation Time Follow-Up,"[3]; 2 mg/kg/day for 4 days, T120 h, 2 mg/kg/day",Infinite
same,Coagulation Time Follow-Up,"[3]; 2 mg/kg/day for 4 days, T120 h, listed as bromadiolone, 2 mg/kg/day",infinite
"C/C(=C\Cc1c(O)c2ccccc2oc1=O)CCCC(C)CCCC(C)CCCC(C)C (stereo not drawn) [Compound According to the Invention, 3-phytyl-4-hydroxy-coumarin]",Total Mortality,"[1]; 3 doses of 10 mg/kg intraperitoneally at T0, T24h, T48h, 10 mg/kg",100%
same,Mortality Follow-Up,[1]; [4],2 Deaths
same,Mortality Follow-Up,[1]; [5],2 Deaths
same,Mortality Follow-Up,[1]; [6],1 Death
same,Total Mortality,"[1]; 3 doses of 10 mg/kg intraperitoneally at T0, T24h, T48h, listed as compounds according to the invention, 10 mg/kg",100%
same,concentration at 72 h,"[2]; ip, 3 doses of 10 mg/kg intraperitoneally at T0, T24h, T48h, T72 h",650 ng/g
same,concentration at 96 h,"[2]; ip, 3 doses of 10 mg/kg intraperitoneally at T0, T24h, T48h, T96 h",510 ng/g
same,concentration at 120 h,"[2]; ip, 3 doses of 10 mg/kg intraperitoneally at T0, T24h, T48h, T120 h",370 ng/g
same,Coagulation Time Follow-Up,"[3]; 3 doses of 10 mg/kg intraperitoneally at T0, T24h, T48h, T0",Infinite
same,Coagulation Time Follow-Up,[3]; [4],Infinite
same,Coagulation Time Follow-Up,[3]; [5],Infinite
same,Coagulation Time Follow-Up,[3]; [6],Infinite
same,Coagulation Time Follow-Up,"[3]; 3 doses of 10 mg/kg intraperitoneally at T0, T24h, T48h, T96 h",Infinite
same,Coagulation Time Follow-Up,"[3]; 3 doses of 10 mg/kg intraperitoneally at T0, T24h, T48h, T120 h",120 s
